One series concerns Stat3. In words: Luciferase reporter assay, Stat3, T98G. It counts as cell-based. Conditions: Homo sapiens; T98G cells; inducer IL6. On the procedure:
(§1) Hela cells (or T98G cells) from ATCC were plated in white opaque 384-well plates at a density of 4300 cells/well in 30 µL of growth medium (DMEM with 10% FBS and 1% Pen/Strep). The next day, the medium was aspirated and replaced with DMEM containing 1% FBS. The cells were transfected with respective plasmids using X-tremeGENE HP DNA transfection reagent (Roche). After 24 h of transfection, the test agents were added to the transfected cells, followed 30 min later by an inducing agent: interleukin 6 (IL-6) for Stat3, TGF-β for Smad, m-wnt3a for Wnt and PMA for AP-1, NF-κB, E2F, Myc, ETS, Notch and Hedgehog. No inducer was added for FoXO and pTK. After 4 h or 6 h of induction, the cells were lysed via the addition of the One-Glo luciferase assay system (Promega; Madison, WI). The light output was detected in a GloMax®-Multi+ Detection System with Instinct® Software (Promega E 8051). This luciferase assay determines if the test agent is able to inhibit the activation of cancer-related signaling pathways. In the case of FoxO, the enhanced luciferase activity via the test agent was assessed.

For another series, the system named is Hedgehog. In words: Luciferase reporter assay, Hedgehog, T98G. Type of series: cell-based. Conditions: Homo sapiens; T98G cells; inducer PMA. On the procedure:
as §1
(In general: Reporter assays use an easily measured gene product as a stand-in for the process of interest.)

The next series deals with NF-κB. Kind of series: Luciferase reporter assay, NF-κB, T98G. Type of series: cell-based. Conditions: Homo sapiens; T98G cells; inducer PMA. Here is the method:
as §1

A further series relates to FoxO. Kind of series: Luciferase reporter assay, FoxO, T98G. It counts as cell-based. Conditions: Homo sapiens; T98G cells; no inducer; dash: no activity detected; read-out: IC50, FoxO (None). On the procedure: as §1
In the next series the test system is AP-1. In words: Luciferase reporter assay, AP-1, T98G. Type of series: cell-based. Conditions: T98G cells; inducer PMA. On the procedure: as §1
In a further series the target is T1, μ opioid receptor (Homo sapiens, UniProt P35372).
T1 construct: host or cells: HEK293, stably transfected; membranes
Kind of series: biochemical. Type of series: binding. On the procedure: (§2) HEK293 cells stably transfected with δ, κ and μ opioid subtypes were a generous gift from Roth Laboratories (University of North Carolina at Chapel Hill, N.C., USA). CB and opioid cells were maintained as previously described.
Membranes were purified by first washing the cells with cold PBS and scraping the cells into cold 50 mM Tris-HCl, pH 7.4 buffer, which was centrifuged at 5200× g for 10 min at 4 °C; next, the supernatant was discarded, and the pellet was washed with more Tris-HCl buffer, homogenized via a Sonic Dismembrator (Fisher Scientific, Pittsburgh, PA, USA) and then centrifuged at 24,000× g for 40 min at 4 °C. Finally, the pellet was re-suspended in cold 50 mM Tris-HCl buffer, aliquoted into 2 mL vials and stored at −80 °C. The total membrane protein concentration was measured using a Pierce BCA Protein Assay Kit (Thermo Scientific, Rockford, IL, USA) as per the manufacturer’s protocol.
Cannabinoid and opioid competitive radioligand binding assays were performed as previously described. Saturation experiments were performed for all the receptors to determine the receptor concentration and radioligand dissociation constant (Kd) for the membrane. Percent displacements were evaluated for all the cannabinoid and opioid subtypes with a triplicate of a fixed concentration (10 µg/mL for extracts and fractions and 10 μM for purified compounds). […] Control/test compounds were dissolved in DMSO at 10 μg/mL for extracts and fractions and 10 μM for purified compounds. […] The percent displacement was calculated to represent the ability of the samples to displace the radioligand binding for a given cannabinoid or opioid receptor subtype.
The percent displacement was calculated as follows: 100−binding of compound−nonspecific binding/specific binding×100
The competitive binding assays were performed using 12 serial dilutions of each compound ranging from 0.002 to 300 μM (control compounds were serially diluted from 10 μM to 0.06 nM). The cannabinoid assays were incubated for 90 min at 37 °C with gentle agitation. The opioid assays were incubated for 60 min at room temperature. Bound radioligands were collected on GF/C (cannabinoid) or GF/B plates (opioid) and washed 10 times with ice-cold 50 mM Tris-HCl (pH 7.4)/0.1% BSA (cannabinoid) or ice-cold 50 mM Tris-HCl (pH 7.4) (opioid). Radiodetection was measured with 50 µL (cannabinoid) or 25 µL (opioid) of MicroScint^TM-20 on a TopCount NXT HTS Microplate Scintillation Counter (PerkinElmer, Waltham, MA, USA). The IC50 and Ki values were calculated via a non-linear curve fit model using GraphPad Prism 5.0 software (GraphPad Software, Inc., San Diego, CA, USA). Each compound was tested in triplicate unless stated otherwise.

The test system of a further series is Notch. In words: Luciferase reporter assay, Notch, T98G. Type of series: cell-based. Conditions: Homo sapiens; T98G cells; inducer PMA. On the procedure:
as §1

For another series, the system named is E2F. Kind of series: Luciferase reporter assay, E2F, T98G. Type of series: cell-based. Conditions: Homo sapiens; T98G cells; inducer PMA. Here is the method:
as §1

The test system of another series is Smad2/3. In words: Luciferase reporter assay, Smad2/3, T98G. It counts as cell-based. Conditions: Homo sapiens; T98G cells; inducer TGF-beta. Here is the method:
as §1

Series [1] in a line: Cytotoxicity, Neutral Red, HeLa. Type of series: cell-based. Conditions: human, HeLa cervical cancer cells, Na = not active up to 50 µg/mL. Here is the method:
(§3) In vitro cytotoxic activity was determined against five human cancer cell lines—malignant melanoma (SK-MEL), epidermal carcinoma oral (KB), ductal carcinoma breast (BT-549), ovary carcinoma (SKOV-3) and cervical (HeLa) cancer cells—and two non-cancerous kidney cell lines (LLC-PK1 and Vero). All cell lines were obtained from the American Type Culture Collection (ATCC, Rockville, MD, USA). Each assay was performed in 96-well tissue culture-treated microplates. The cells were seeded at a density of 25,000 cells/well and incubated for 24 h. Samples at different concentrations were added, and the cells were incubated again for 48 h. At the end of the incubation, the cell viability was determined using Neutral Red dye according to a modification of the procedure used by Borenfreund et al.. IC50 values were determined from dose–response curves of the percent growth inhibition against test concentrations. Doxorubicin was used as a positive control, while DMSO was used as the negative (vehicle) control.

Series [2] is described as follows: Cytotoxicity, Neutral Red, Vero. Type of series: cell-based. Conditions: monkey, Vero kidney fibroblasts, Na = not active up to 50 µg/mL. On the procedure:
as §3

The subject of a further series is Wnt. Kind of series: Luciferase reporter assay, Wnt, T98G. Type of series: cell-based. Conditions: T98G cells, inducer m-wnt3a, dash: not inhibited by more than 40% at 50 µmol/L. Here is the method:
as §1

Series [3] is described as follows: Cytotoxicity, summary over the cell line panel. It counts as cell-based. Conditions: human, HeLa, SK-MEL, KB and BT-549 cells; read-out: Cytotoxicity IC50 values, span over cell lines. On the procedure:
as §3

The target of a further series is T2, κ opioid receptor (Homo sapiens, UniProt P41145).
T2 construct: host or cells: HEK293, stably transfected; membranes
Type of series: binding. Conditions: 10 μM; [3H]-U-69,593. Here is the method: as §2
Membranes were purified by first washing the cells with cold PBS and scraping the cells into cold 50 mM Tris-HCl, pH 7.4 buffer, which was centrifuged at 5200× g for 10 min at 4 °C; next, the supernatant was discarded, and the pellet was washed with more Tris-HCl buffer, homogenized via a Sonic Dismembrator (Fisher Scientific, Pittsburgh, PA, USA) and then centrifuged at 24,000× g for 40 min at 4 °C. […] The total membrane protein concentration was measured using a Pierce BCA Protein Assay Kit (Thermo Scientific, Rockford, IL, USA) as per the manufacturer’s protocol.
Cannabinoid and opioid competitive radioligand binding assays were performed as previously described. […] Percent displacements were evaluated for all the cannabinoid and opioid subtypes with a triplicate of a fixed concentration (10 µg/mL for extracts and fractions and 10 μM for purified compounds). […] The percent displacement was calculated to represent the ability of the samples to displace the radioligand binding for a given cannabinoid or opioid receptor subtype.
The percent displacement was calculated as follows: 100−binding of compound−nonspecific binding/specific binding×100 […]

Series [4] concerns SK-MEL, KB, BT-549, SK-OV-3, HeLa, LLC-PK1 and Vero cells. In words: Cytotoxicity, summary over the cell line panel. Conditions: highest tested concentration of 50 µg/mL; most of the cells. It counts as cell-based. On the procedure:
as §3

This is an account of results in paper PMC10361207, “Cannabinoid and Opioid Receptor Affinity and Modulation of Cancer-Related Signaling Pathways of Machaeriols and Machaeridiols from Machaerium Pers” (Molecules, 2023).

SMILES strings stand for the structures. Converted amounts (≈) assume the structure as drawn.

A word on the IC50: it is the concentration at which inhibition is half-maximal. For orientation: Ki means the equilibrium dissociation constant of an inhibitor or competing ligand from its target.

T1 sequence (P35372 whole entry): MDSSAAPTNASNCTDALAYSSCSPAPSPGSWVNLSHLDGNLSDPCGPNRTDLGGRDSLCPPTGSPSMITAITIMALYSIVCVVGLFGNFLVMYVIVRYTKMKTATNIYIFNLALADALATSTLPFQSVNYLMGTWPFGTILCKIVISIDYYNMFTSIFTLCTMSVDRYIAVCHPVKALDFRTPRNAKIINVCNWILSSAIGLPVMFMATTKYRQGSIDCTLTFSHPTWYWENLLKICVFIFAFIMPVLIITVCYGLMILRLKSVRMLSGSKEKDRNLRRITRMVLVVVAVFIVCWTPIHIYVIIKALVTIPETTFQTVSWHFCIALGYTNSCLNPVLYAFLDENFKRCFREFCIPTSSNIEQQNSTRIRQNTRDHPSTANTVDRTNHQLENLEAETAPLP
T2 sequence (P41145 whole entry): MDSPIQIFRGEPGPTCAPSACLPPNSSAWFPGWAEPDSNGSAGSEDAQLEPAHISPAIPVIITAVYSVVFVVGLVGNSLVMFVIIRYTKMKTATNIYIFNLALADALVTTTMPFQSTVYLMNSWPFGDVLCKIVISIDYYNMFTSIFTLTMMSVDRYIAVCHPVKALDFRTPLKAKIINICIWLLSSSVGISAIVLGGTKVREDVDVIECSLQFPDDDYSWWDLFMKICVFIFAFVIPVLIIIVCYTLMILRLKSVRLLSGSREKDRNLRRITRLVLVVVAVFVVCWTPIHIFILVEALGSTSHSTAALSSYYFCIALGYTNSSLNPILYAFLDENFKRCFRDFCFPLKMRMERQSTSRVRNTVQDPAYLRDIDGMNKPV

For `C=C(C)[C@H]1CC[C@H](C)C[C@@H]1c1c(O)cc(/C=C/c2ccccc2O)cc1O` [compound 6, machaeridiol B], the IC50 with Stat3 is 1.4 µM; with Hedgehog, 5 µM; in the series with NF-κB, 4 µM; with FoxO, > 50 µM; with AP-1 it was 4.2 µM; with Notch it was 4.6 µM. The 50% inhibitory concentration (IC50) in the series on E2F is 0.7 µM; in the series with Smad2/3, 3 µM; with Wnt (Homo sapiens), > 50 µM. Besides, at μ opioid receptor (10 μM, [3H]-DAMGO), the “Percent displacement, µ” value is 27.6%. In addition, at μ opioid receptor (NA = not active, read-out: μ Ki ± SEM), the Ki came to 4.73 ± 0.84 µM. For the same compound, the values for the half-inhibitory concentration (IC50) at 48 h in [1], in series [2] and in series [3] were 37 µg/mL (≈ 102 µM), 47 µg/mL (≈ 129 µM) and 32 to 38 µg/mL (≈ 87.8 to 104 µM), respectively. In the series on Wnt, the “IC50, Wnt (m-wnt3a)” value was “inactive”.
Consider `C[C@H]1CC[C@H]2[C@H](C1)c1c(O)cc(/C=C/c3ccccc3O)cc1OC2(C)C` [compound 3, machaeriol C], for which the “Percent displacement, ĸ” value on κ opioid receptor is 6.4%. The “Cytotoxicity (in words)” value in [4] is “inactive”.
